Results on 36 compounds are retold here after a melting point compilation (Tetko et al.; mined from patent text by program, amines drawn as free bases though some values may be those of a salt).

`NC(=S)NN=C(CCCOC(=O)Nc1cccc2ccccc12)c1ccccc1`: the melting point fell in the range of 189 to 192 °C.

In the case of `COc1ccc(CN(C)c2ncnc3c(N4CCOCC4)nc(N4CCC(N(C)C)CC4)nc23)cc1`, the melting point fell in the range of 109 to 110 °C.

The compound `Cc1cc(Cn2nnc(C(N)=O)c2N)cc(Cl)c1C(=O)c1ccc(C(F)(F)F)cc1` had a melting point of 201 to 202 °C.

As for `O=S1(=O)N[C@@H](c2cccc(Br)c2)c2ccccc21`, the melting point came out at 163 °C.

The compound `Oc1cc2c(cc1C13CC4CC(CC(C4)C1)C3)CCCC2` came in with a melting point of 169 to 170 °C.

Compound `Cc1ccc(O)c(NC(=O)c2ccc(OCCCCc3ccccc3)cc2)c1` had a melting point of 138 to 140 °C.

Compound `CCc1cccc(C)c1CNc1c(NC(C)(C)C)c(=O)c1=O` displayed a melting point of 240 to 244 °C.

`Nc1ccc2ccc(OCCN3CCOCC3)nc2n1` came in with a melting point of 164 °C.

As for `CC(C)CN(CCCc1ccc(F)cc1)[C@H]1CC[C@H](c2ccc3[nH]c(=O)oc3c2)CC1`, the melting point lay within 199 to 201 °C.

`O=c1c2cc(F)c(F)cc2[nH]c2c1cnn2-c1ccccn1` registered a melting point of over 300 °C.

`O=C1Nc2ccccc2C(c2ccc(Cl)cc2)CC1Br` (stereo unspecified) gave a melting point of 194 to 198 °C.

In turn, `COc1cn(-c2cc(F)c(N3CCOCC3)cc2F)nc(-c2ccnn2-c2ccccc2)c1=O` registered a melting point of 211 to 212 °C.

Compound `O=C(c1ccccc1)c1ccc(CO)cc1` yielded a melting point of 59 to 61 °C.

The compound `COc1ccc(CCNCC(O)c2cccc(Cl)c2)cc1` (stereo unspecified) had a melting point of 101 to 103 °C.

For `COc1ccc(C(=O)c2cccc(S(N)(=O)=O)c2)cc1`, the melting point was in the range of 119 to 122 °C.

As to `C=C(C(N)=O)N1CCC(c2ccc(OC(C)=O)c(OC)c2)C1c1ccccc1` (stereo unspecified), the melting point fell in the range of 113 to 116 °C.

For `Nc1noc(CN2CCC[C@@H](OCc3cc(C(F)(F)F)cc(C(F)(F)F)c3)[C@H]2c2ccccc2)n1` (relative stereo), the melting point lay in the range of 138 to 139 °C.

Consider `CCC1(CC(=O)O)OCC(Cc2ccccc2)c2c1[nH]c1ccccc21` (single isomer, unassigned; (-)), for which the melting point was in the range of 142 to 143 °C.

Consider `COc1c(CO)cccc1Oc1ccccc1C`, for which the melting point was 63 to 65 °C.

Take `CC(=O)NCc1ccc(CN2CCN(c3ccc([N+](=O)[O-])cc3)CC2)cc1`: the melting point is 152 to 154 °C.

Turning to `CSCOc1ccc(-c2coc3ccc(-c4nnc(C)o4)cc23)cc1`, the melting point is 116 to 117 °C.

On to `CC(=O)SCCC(=O)N1CCC=C1C(=O)O`, for which the melting point was 89 to 91 °C.

`Cc1oc(-c2ccccc2)nc1COc1ccccc1COc1ccc(CC(=O)O)cc1` gave a melting point of 173 to 174 °C.

In the case of `COc1ccc2[nH]cc(C#N)c2c1`, the melting point amounted to 147 °C.

As for `O=[N+]([O-])C=Cc1cc(Br)ccc1O`, the melting point lay in the range of 165 to 167 °C.

Take `O=C(O)CCCc1ccc(-c2ccccc2F)cc1`: the melting point lay in the range of 65 to 66 °C.

`c1ccc(CSc2ncccc2-c2ccccc2)cc1`: the melting point fell in the range of 99 to 100 °C.

Compound `CC(=O)OC(C(C(=O)C(C)(C)C)n1cncn1)C(Cl)(Cl)Cl` (stereo unspecified) returned a melting point of 115 to 119 °C.

In turn, `CC(C(=O)O)c1ccc(N2CCC=N2)c(Cl)c1` (stereo unspecified) gave a melting point of 94 to 102 °C.

On to `Cc1cc(C)cc(-c2cc(O)c(Sc3ccccc3)c(=O)o2)c1`, for which the melting point is 210 to 211 °C.

In the case of `CCn1c2c(c3ccccc31)Cc1c(CO)c(CO)c(C)n1C2`, the melting point was 216 to 217 °C.

Take `CCCCNC(=S)Nc1onc2c1CCC2`: the melting point amounted to 93 °C.

`CCCc1nn(C)c2c(=O)[nH]c(Cc3ccc(-n4cnnc4)cc3)nc12` displayed a melting point of 297 to 300 °C.

In the case of `CC1(O)CCC(CN2CCC(=C3c4ccc(F)cc4Sc4ccc(C(F)(F)F)cc43)CC2)CC1` (stereo unspecified), the melting point was in the range of 80 to 90 °C.

`CCOC(=O)/C(=N\OC(C)(C)C)c1csc(N)n1` displayed a melting point of 111 to 112 °C.

In the case of `O=C(NS(=O)(=O)C(F)(F)F)c1cccc([N+](=O)[O-])c1`, the melting point was in the range of 80 to 83 °C.

As a reminder, the melting point is the temperature, or range, at which the solid turns liquid.
